For this experiment, the system named is CEM cells HIV-1 protection, formazan growth assay. In words: NCI AIDS Antiviral Assay. The following applies: for IC50: measured here: growth of uninfected CEM cells. The gist of the method: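 Category rules: moderately active means at least 50% protection on retest, and confirmed active means 100% protection reproducibly. The underlying data came from a formazan growth assay in HIV-1-infected CEM cells.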

Usually EC50 stands for the concentration that produces a half-maximal response. By IC50 is commonly meant the midpoint of a concentration-inhibition curve.

Active and inactive are the calls of the source.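 How the source made its calls: active means compounds giving half or more protection of infected cells from virus-caused growth loss, again on retest; inactive means the rest.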 Some results are limits rather than exact numbers.

With `S=C1NCCS1`, the EC50 is greater than 2090 µM and the half-inhibitory concentration (IC50) was 1170 µM.

Take `Cn1nc(-c2ccccc2)c2c(/C=C/c3ccccc3)onc2c1=O`: the result was inactive. On to `COc1cc(C2SC(N)=Nc3c2c(C)nn3C(=O)Cc2ccccc2)cc(OC)c1OC` (stereo not given), for which the concentration giving a half-maximal response (EC50) is 49 µM and the IC50 was greater than 200 µM. The matching figures for `CCOC(=O)NC(S(=O)(=O)O)S(=O)(=O)O`: greater than 200 µM and greater than 200 µM. Consider `CC(C)(Oc1ccc(Cl)cc1)C(=O)N(C(=O)N1CCCCC1)c1ccccc1`, for which the EC50 was greater than 200 µM and the IC50 was found to be 13.2 µM. Consider `Cn1c(/C=C(\O)c2ccc(Cl)cc2)nc2ccccc21`, for which the EC50 is greater than 91.2 µM and the half-maximal inhibitory concentration (IC50) is greater than 91.2 µM.

As to `O=c1oc2ccccc2c(O)c1/C=N/C(=S)Nc1ccccc1`, the EC50 was greater than 200 µM and the IC50 came out at 51.3 µM. For the compound `CCOC(=O)CC1c2ccc(O)cc2OC(=O)C1c1ccc(N)cc1` (stereo not given), the EC50 is greater than 200 µM and the IC50 is greater than 200 µM.

With `COC(=O)C1CC2(CCC1=O)Cc1ccccc1C2=O` (stereo not given), the EC50 is greater than 200 µM and the IC50 is 72.4 µM. For the compound `CC1(C)CNC[C@](C)(OCCO)C(=O)[N-]C(C)(C)CNC[C@@](C)(OCCO)C(=O)[N-]1.[Ni+2]`, the EC50 is greater than 200 µM and the IC50 amounted to 182 µM. For the compound `O=C(/C=C/c1c(O)ccc2ccccc12)c1ccc([N+](=O)[O-])cc1`, the EC50 is 33.9 µM and the IC50 was 58.9 µM. As for `CCCCCC#CCOC(=O)C(=[N+]=[N-])P(=O)(c1ccccc1)c1ccccc1`, the EC50 was greater than 200 µM and the IC50 came out at 95.5 µM. As for `CC(C)(C)n1c(=O)n(-c2ccccc2)n(C(C)(C)C)c1=O`, the EC50 is greater than 200 µM and the IC50 is greater than 200 µM. With `COC(=O)c1cc(Cc2cc(Br)c(OC)c(C(=O)OC)c2)cc(Br)c1OC`, the EC50 was greater than 200 µM and the IC50 was determined as 162 µM.

Take `Cc1ccccc1NC(=O)CC(=O)N1N=C(N(CCC#N)c2ccccc2Cl)CC1c1ccccc1` (stereo not given): the EC50 is greater than 263 µM and the IC50 was greater than 263 µM. As for `CCCc1cc(=O)oc2c3c(ccc12)OC(C)(C)[C@H](OC(=O)C12CCC(C)(C(=O)O1)C2(C)C)[C@@H]3OC(=O)C12CCC(C)(C(=O)O1)C2(C)C` (stereo not given in full), the half-maximal effective concentration (EC50) is 0.891 µM and the IC50 was greater than 200 µM.

On to `NC(=O)N1c2ccccc2C=Cc2ccccc21`, for which the EC50 was greater than 200 µM and the IC50 is greater than 200 µM.

For the compound `C/C(Cl)=N/OC(=O)Nc1ccc(F)c([N+](=O)[O-])c1`, the EC50 was greater than 200 µM and the IC50 is 3.24 µM. In turn, `NCCCN(CCCCN(CCCN)Cc1ccc2ccccc2c1)Cc1ccc2ccccc2c1` displayed an EC50 greater than 200 µM and an IC50 of 1.07 µM. As to `CCCCCCCC(=O)O[C@H]1[C@H]2[C@@H](CC1(C)C)C(=O)[C@]13O[C@H]1C(=O)[C@]1(CO1)[C@]23C`, the EC50 is greater than 162 µM and the IC50 is 0.55 µM. Taken in the same sequence, the figures for `CCOC(=O)C1=C(O)C(=O)c2ccoc2C1=O` were greater than 79.4 µM and greater than 79.4 µM. In the case of `CCCCCC(C)(O)C1=NCCN1` (stereo not given), the EC50 was greater than 200 µM and the IC50 was greater than 200 µM. Consider `COc1ccccc1NC(=O)C1=C(C)NC(C)=C(C(=O)Nc2ccccc2OC)C1C1=CC=COC1`, for which the EC50 was greater than 14.8 µM and the IC50 was greater than 14.8 µM. For the compound `O=C(Cc1ccccc1)N/N=C(\C1=Nc2ccc([N+](=O)[O-])cc2NC1O)C(O)c1ccc([N+](=O)[O-])cc1` (stereo not given), the EC50 was greater than 51.3 µM and the IC50 was 47.9 µM. On to `OCC(O)COc1c(Cl)ccc(Cl)c1Cl` (stereo not given), for which the EC50 was 87.1 µM and the 50% inhibitory concentration (IC50) turned out to be 275 µM.

With `CN(C)CCNC(=O)C(C)(C)Oc1ccc(C(=O)c2ccc(Cl)cc2)cc1Cl`, the EC50 was greater than 200 µM and the IC50 came out at 9.55 µM. With `CCc1cccc(C)c1NC(=O)CC(=O)NNC(N)=S`, the EC50 was greater than 324 µM and the concentration for half-maximal inhibition (IC50) was greater than 324 µM. As to `CCOC(=O)C(C(=O)OCC)=C(N)C(Cl)(Cl)Cl`, the EC50 was greater than 200 µM and the IC50 worked out at 42.7 µM.

For the origin of these results see PubChem BioAssay AID179 (DTP/NCI, 2004).
